{"source": "patent US9801373B2", "about": "“Compounds for alleviating phosphate starvation symptoms in plants” (Commissariat a l'Energie Atomique et aux Energies …, priority 2012, dated 2017)", "key": {"Fe content assay by ICP": {"assay": "Fe content assay by ICP", "assay_type": "in vivo, Arabidopsis thaliana", "details": "−Pi+PTN1 40 μM, FIG. 9 (B)", "experimental": "For the quantification of ions content, 50 mg of dry weight of each sample were mineralized in 14% HNO3 using a MarsX microwave system (CEM) for the determination of macro- and microelements by inductively coupled plasma optical emission spectrometry (ICP OES Vista MPX, Varian). Biological triplicates were performed for all experiments."}, "[1]": {"system": "phospholipids / glycolipids", "assay": "Lipid composition of aerial part", "assay_type": "in vivo, Arabidopsis thaliana", "experimental": "Lipids and anthocyanins were analyzed as previously described by Jouhet (2003) and Ticconi (2001)."}, "[2]": {"assay": "Optical density curves of PTN1 with FeCl2", "assay_type": "physicochemical", "details": "PTN1 40 μM + FeCl2 10 μM, FIG. 9 (A)"}, "[3]": {"system": "SQD2, MGD3, PLDz2, SQD1 and MGD2", "assay": "qPCR of genes involved in lipid synthesis", "assay_type": "in vivo, Arabidopsis thaliana", "details": "40 μM, 14 days, FIG. 5 (A)", "experimental": "Plant RNA was extracted with the RNeasy kit (QIAGEN, France). For transcriptome data, RNA were analysed by the CATMA technology (Complete Arabidopsis Transcriptome Microarray). For qPCR, poly(dT) cDNA were prepared from 500 ng total RNA with Superscript III reverse transcriptase (Invitrogen, France) and analysed on a LightCycler 480 apparatus (Roche Diagnostics, France) with the SYBR Green I Master kit (Roche Diagnostics, France) according to the manufacturer's instructions. Targets were quantified with specific primer pairs designed with Primer3 website (http://frodo.wi.mit.edu/primer3/) (see Table II below). Biological triplicates were performed for all experiments. Expression levels were normalized using At2g16600, At3g04120, At1g35160 and At1g32050 genes."}, "phosphatase activity": {"system": "phosphatase activity", "assay": "Phosphatase activity on root samples", "assay_type": "in vivo, Arabidopsis thaliana", "details": "7-days-old plants, −Pi+PTN1 40 μM, FIG. 4", "experimental": "Soluble proteins were extracted with 50 mM TRIS pH 7.4 and 1 mM DTE (1,4-Dithioerythritol, Sigma, 6892-68-8). The protein concentration was determined by the Bradford methods, using albumin from bovine serum (BSA, Sigma, 9048-46-8) as a standard. The phosphatase activity in solution was determined as previously described by Kolari and Sarjala, (1995), by measuring the release of nitrophenol from 0.6 mM p-nitrophenylphosphate in 50 mM sodium acetate pH 5. Reactions were incubated at 30° C. for […] and were stopped with 10% of Na2CO3, after which the absorbance at 405 nm was measured."}, "root cortical cells": {"system": "root cortical cells", "assay": "Cortical cell size of root", "assay_type": "in vivo, Arabidopsis thaliana", "details": "−Pi seedlings, FIG. 7 (C)"}, "PHT1;4 expression": {"system": "PHT1;4 expression", "assay": "Chemical genetics screen, GUS staining of pht1;4-1 reporter line", "assay_type": "in vivo, Arabidopsis thaliana", "details": "25 μM, 5 days on −Pi", "source_text": "A “chemical genetics” approach has been carried out to isolate compounds that inhibit the phosphate (Pi) response in Arabidopsis thaliana. Compounds were screened for their ability to inhibit the expression of a phosphate starvation marker, namely the high affinity Pi transporter PHT1,4 gene. For the screening, the A. thaliana pht1;4-1 line (ecotype Wassilewskija) was chosen (Misson et al., 2004). It contains a T-DNA construct inserted into Pht1;4 gene creating a transcriptional fusion with a GUS reporter gene. For phenotypic analyses, A. thaliana Columbia and various lines derived from this ecotype were used. They are either transgenic lines expressing reporter gene as cycB1::GUS (Colón Carmona et al., 1999), MGD3::LUC, PHT1;4::LUC, At1g73010::LUC or various mutants affecting root response to low Pi such as: pdr2 (Ticconi et al., 2004), lpr1, lpr2 (Svistoonoff et al., 2007), lpi1, lpi2 and lpi3 (Sanchez-Calderon et al., 2006).\nFor the screening, the LATCA collection of 3600 biologically active compounds (Zhao et al., 2007) was used at a final concentration of 25 μM in 1% DMSO. Four to five Arabidopsis seeds of pht1;4-1 (Misson et al., 2004) reporter line were sown in 96-well plates containing 100 μL liquid MS/10 medium with 500 μM of Pi at pH 5.7. After 2 days at 4° C., plants were grown for five days in a culture chamber under a 16 h light/8 h dark regime (24/21° C., 150 μE m^−2s^−1). Medium was then replaced by MS/10 with only 5 μM Pi and the tested compounds were added to the 96-well plates. […] Five days later, plantlets were analysed by GUS staining to assay the activity of the reporter gene inserted in pht1;4 gene. […] Then, plates were analysed using a MZ16 stereomicroscope (Leica microsystems, Germany).\nThe GUS activity was detected as previously described by Jefferson et al. (1987), using a GUS staining solution containing 50 mM sodium phosphate buffer pH 7.0; 0.01% Triton X-100, 1 mM K3Fe(CN)6, 1 mM K4Fe(CN)6, 1 mg/ml 5-bromo-4-chloro-3-indolyl B-D-glucuronide (X-Gluc). […]"}, "wild-type (WT) seedlings": {"system": "wild-type (WT) seedlings", "assay": "Primary root growth of wild-type seedlings", "assay_type": "in vivo, Arabidopsis thaliana", "experimental": "In the Pi deficient medium, NaCl (0.5 mM) was used to replace the equivalent amount of sodium provided by NaH2PO4. For controls of the effects of the compounds, 1% of DMSO (Dimethyl sulfoxid, SIGMA, 472301), solvent for the tested compounds, was added. After 2 days at 4° C., the plates were placed in a vertical position and plants were grown in a culture chamber under a 16 h light/8 h dark regime (24/21° C., 150 μE m^−2s^−1). For 4 weeks culture, large plates (24×24 cm) were placed in a horizontal position. Root architecture and aerial part area were quantified using program ImageJ."}, "[4]": {"details": "−Pi medium containing PTN1, FIG. 5 (B)"}}, "note": "“Also recorded” adds a separate entry of the source."}
{"smiles": "O=c1c(Sc2ccc(Cl)cc2)c(Sc2ccc(Cl)cc2)c1=O", "note": "[PTN1]", "values": [{"measurement": "Fe content in plants", "setting": "Fe content assay by ICP", "result": "did not reduce the Fe content"}, {"measurement": "reduction of DGDG content", "setting": "[1]; Pi-starved plants, aerial part, 10-day-old, FIG. 5 (C)", "result": 27, "unit": "%"}, {"measurement": "glycolipids share in ratio of phospholipids onto glycolipids", "setting": "[1]; [4]", "result": 75, "unit": "%"}, {"measurement": "phospholipids share in ratio of phospholipids onto glycolipids", "setting": "[1]; [4]", "result": 25, "unit": "%"}, {"measurement": "PC and PE content", "setting": "[1]; −Pi seedlings, FIG. 5 (C)", "result": "partially reverted the effect of −Pi"}, {"measurement": "absorption spectrum of solution containing PTN1 and Fe2+", "setting": "[2]", "result": "identical to the PTN1 control without FeCl2"}, {"measurement": "expression of SQD2, MGD3, PLDz2, SQD1 and MGD2", "setting": "[3]", "result": "repressed the expression"}, {"measurement": "phosphatase activity", "setting": "phosphatase activity", "result": "not altered; also recorded: did not impact the phosphatase activity"}, {"measurement": "root cortical cell elongation", "setting": "root cortical cells", "result": "restored root cell elongation of −Pi seedlings to an extant closed to the untreated control grown on a +Pi medium"}, {"measurement": "toxicity as cause of reduced reporter gene expression", "setting": "PHT1;4 expression", "result": "not explained by toxicity"}, {"measurement": "primary root growth at various external Pi concentrations (15-250 uM)", "setting": "wild-type (WT) seedlings; 10 uM, 5 days on Pi rich medium then 24 hours on tested conditions, FIG. 7 (D)", "result": "improved root growth until 50/75 μM of Pi"}, {"measurement": "primary root growth on −Pi", "setting": "wild-type (WT) seedlings; WT, 7-day-old plantlets, FIG. 7 (A)", "result": "promote the primary root growth in a dose dependent manner"}, {"measurement": "concentration of maximum effect on primary root growth and PHT1;4 inhibition", "setting": "wild-type (WT) seedlings; −Pi", "result": 40, "unit": "µM"}]}
